US12453723B2, “Use of chidamide in preparing drug for treating renal fibrosis” (THE SECOND AFFILIATED HOSPITAL OF SOOCHOW UNIVERSITY, priority 2023, dated 2025)

Tests used:
UUO mice = assay: Renal fibrosis mouse model (UUO): renal morphology, renal function, collagen deposition, fibrosis markers; assay type: in vivo
Description: In this example, a renal fibrosis mouse model (UUO: Unilateral Uretera Obstruction, renal interstitial fibrosis model) was constructed through UUO surgery at the same time. On the 7th day after surgery, the protein expression of HDAC1/2/3/10 in test group (UUO) and control group (Sham) was detected respectively through immunoblotting and immunohistochemical tests.
In this example, mice were divided into 7 groups at random with 7 mice in each group, which were Sham group (sham), Sham+chidamide group (Sham-Chi 10 mg/kg/d), model group (UUO), UUO+Enacept positive control group (UUO-En 10 mg/kg/d), UUO+chidamide low-dose administration group (UUO-Chi 1 mg/kg/d), UUO+chidamide medium-dose administration group (UUO-Chi 5 mg/kg/d) and UUO+chidamide high-dose administration group (UUO-Chi 10 mg/kg/d), respectively. All drugs were administrated by gavage 3 days before modeling, once a day, until 7 days after surgery. Mice were weighed everyday after surgery, and then growth curves were plotted. After administration was ended, the mice were anesthetized, the eye sockets were removed and bloods were collected for the detection of serum creatinine (Scr) and urea nitrogen (BUN). At the same time, left and right kidneys were taken and then weighed after hydronephrosis was removed, so as to obtain the renal weight indexes of the obstructed kidneys in mice (kidney weight/mouse weight at the obstructed side). The photos were taken.
In FIG. 3, (A) the weight growth curve of mice verified the effect of UUO modeling and intragastric administration of chidamide on mouse weight, n=7, Mean±SDs, Student's t-test, ns: not significant; (B) the renal weight index change of mice (the statistical chart above, n=4, Mean±SDs, Student's t-test, *: P<0.05, **: P<0.01, ****: P<0.0001, ns: not significant) and renal tissue in vitro photos (below) verified the effect of chidamide on renal morphological changes of UUO mice; (C-D) mouse creatinine (C) and urea nitrogen (D) changes verified the effect of chidamide on renal functions of UUO mice, n=5-6, Mean±SDs, Student's t-test, *: P<0.05, **: P<0.01, ***: P<0.001, ns: not significant.
In the above constructed UUO mouse model of this example, the effect of chidamide on renal interstitial collagen fiber deposition was detected further by Masson staining.
In FIG. 4, (A-B) the deposition of renal interstitial collagen fibers was detected after UUO modeling and chidamide was administrated, (A) a typical picture for Masson staining; (B) the statistical results of Masson staining area proportion, n=6, Mean±SDs, Student's t-test, *: P<0.05, **: P<0.01, ****: P<0.0001, ns: not significant.
In this example, the improvement effect of chidamide on UUO renal fibrosis was further detected. In the above constructed UUO mouse model of this example, the effect of chidamide on protein expression of renal fibrosis markers was detected respectively by immunohistochemistry and immunoblotting experiments, and the change in fibrosis marker mRNA was detected by the qPCR experiment. […]

[1] = system: TGF-β stimulated renal tubular epithelial cells HK-2; assay: PI3K inhibitor LY 294002 and chidamide on fibrosis markers Collagen I and α-SMA in TGF-β stimulated HK-2 (immunoblotting); assay type: cell-based; settings: FIG. 8B
Description: Subsequently, this example further investigated the change of chidamide on fibrosis markers after LY 294002 treatment was used in TGF-β stimulated renal tubular epithelial cells HK-2. […] The above experimental results initially verify that chidamide is very likely to inhibit the progression of renal fibrosis through the PI3K/Akt signaling pathway.
In FIG. 8, (A) the effect of different concentrations of LY 294002 (LY) on protein expression of fibrosis markers Collagen I and α-SMA in TGF-β stimulated renal tubular epithelial cells HK-2 was detected by the immunoblotting experiment; (B) the effect of LY 294002 (LY) on fibrosis marker Collagen I and α-SMA protein expression by chidamide was detected in TGF-β stimulated renal tubular epithelial cells HK-2 by the immunoblotting experiment.

[2] = system: TGF-β stimulated renal tubular epithelial cells HK-2; assay: Fibrosis markers in TGF-β stimulated HK-2 cells (immunoblotting, qPCR); assay type: cell-based; settings: different concentrations of chidamide
Protocol: Example 1 verified that HDAC1/2/3/10 can participate in renal fibrosis, and example 2 further explored the effect of chidamide on renal fibrosis in TGF-β stimulated renal tubular epithelial cells. In example 2, cells were treated by using different concentrations of chidamide and then stimulated by adding TGF-β, and the protein expression and mRNA levels of fibrosis markers were detected respectively by using immunoblotting and qPCR experiments.
In FIG. 2, (A) the effect of different concentrations of chidamide on protein expression of fibrosis markers α-SMA and Vimentin (Vim) in TGF-β stimulated HK-2 cells was detected by the immunoblotting experiment; (B-C) the statistical results of α-SMA and Vimentin in FIG. A in 3 biological duplications, Mean±SDs, Student's t-test, *: P<0.05; **: P<0.01; (D-E) the effect of different concentrations of chidamide on […] experiment in TGF-β stimulated HK-2 cells, and the statistical resultsare 3 technical duplications, Mean±SD, Student's t-test, *: P<0.05, **: P<0.01, ***: P<0.001, ****: P<0.0001.

[3] = system: PI3K/Akt signaling pathway; assay: PI3K/Akt signaling pathway in UUO mouse model (immunoblotting); assay type: in vivo
Description: (§1) The PI3K-Akt signaling pathway is an intracellular signal transduction pathway which responds to extracellular signals, promotes metabolism, proliferation, cell survival, growth and angiogenesis, and participates in pathophysiological processes of multiple diseases. […] The above experimental results all verify that chidamide can inhibit the PI3K/Akt signaling pathway.
(§2) In FIG. 7, (A) the effects of chidamide onprotein expression of p-PI3K, PI3K, p-Akt and Akt in TGF-β stimulated renal tubular epithelial cell HK-2 were detected by the immunoblotting experiment; (B-C) the statistical charts showingthe effect of chidamide onp-PI3K/PI3K and p-Akt/Akt ratios in TGF-β stimulated renal tubular epithelial cell HK-2, n=3, Mean±SDs, Student's t-test, *: P<0.05; (D) the effectof chidamide on protein expression of p-PI3K, PI3K, p-Akt and Akt in UUO mouse model was detected by the immunoblotting experiment (n=4); (E) the effect of chidamide on proein expression of autophagy markers of TGF-β stimulated renal tubular epithelial cell HK-2 was detected by the immunoblotting experiment; (F) the effect of chidamide on protein expression of autophagy markers as well as p-mTOR and mTOR in UUO mouse model was detected by the immunoblotting experiment (n=4).

[4] = system: PI3K/Akt signaling pathway; assay: PI3K/Akt signaling pathway in TGF-β stimulated HK-2 cells (immunoblotting); assay type: cell-based
Description: as §1, §2

weight growth curve of mice (UUO mice; intragastric administration at various doses (1, 5, 10 mg/kg/d), once a day, 3 days before modeling until 7 days after surgery, FIG. 3A): did not affect the growth of mice
SMILES: Nc1cc(F)ccc1NC(=O)c1ccc(CNC(=O)/C=C/c2cccnc2)cc1 [chidamide, N-(2-amino-4-fluorophenyl)-4-[N-[(E)-3-(3-pyridine)acryloyl]aminomethyl]benzamide]
serum creatinine (Scr) (UUO mice; UUO mice after chidamide administration, FIG. 3C): obviously fall back | urea nitrogen (BUN) (UUO mice; UUO mice after chidamide administration, FIG. 3D): obviously fall back | renal interstitial collagen fiber deposition (UUO mice; UUO mice, Masson staining, FIG. 4): significantly improved | protein expression of renal fibrosis markers (UUO mice; UUO mouse renal tissues, immunohistochemistry and immunoblotting, FIGS. 5A-E): significantly fall back | mRNA of renal fibrosis markers (UUO mice; UUO mouse renal tissues, qPCR, FIGS. 5F-I): significantly fall back | ureteral dilation degree and renal tissue squeezing degree (UUO mice; UUO+chidamide group compared with UUO group, FIG. 3B): less than those in corresponding UUO group | obstruction renal weight index (kidney weight/mouse weight at the obstructed side) (UUO mice; UUO+chidamide group compared with UUO group, gavage, FIG. 3B): significantly decreased | expression of fibrosis markers Collagen I and α-SMA ([1]; TGF-β stimulated HK-2, chidamide with PI3K inhibitor LY 294002 used simultaneously): cannot affect the expression of fibrosis markers any more | protein expression of fibrosis markers Collagen I and α-SMA ([1]; TGF-β stimulated HK-2, used alone): can inhibit | protein expression of fibrosis markers (α-SMA, Vimentin) ([2]; immunoblotting, FIG. 2A-C): significantly decreased | mRNA level of fibrosis markers (α-SMA, Vimentin) ([2]; qPCR, FIG. 2D-E): significantly decreased | p-Akt/Akt ratio ([3]; FIG. 7D): significantly reduced | p-PI3K/PI3K ratio ([3]; FIG. 7D): significantly reduced | autophagy flow (autophagy markers) ([3]; FIG. 7F): restore an autophagy flow | p-mTOR/mTOR ratio ([3]; FIG. 7F): reduce | autophagy flow (autophagy markers) ([4]; FIG. 7E): restore an autophagy flow | p-Akt/Akt ratio ([4]; FIGS. 7A-C): significantly reduced | p-PI3K/PI3K ratio ([4]; FIGS. 7A-C): significantly reduced
